Measurements reported in patent EP1431294A1, “VASCULAR WALL-SELECTIVE ACAT INHIBITOR” (Kowa Company Ltd., priority 2001, dated 2003).
Each block holds one molecule with its values, some of them ahead of it.

Columns and labels:
[1] = tested on: lipid-loaded model of F1B hamster; assay: Arteriosclerotic model animal test (lipid-loaded F1B hamster); settings: for dose from which suppression of lipid accumulation was effective / plasma cholesterol at doses effective in suppression of lipid accumulation: F1B hamsters; for dose from which suppression of lipid accumulation was effective: drug in high-fat feed; for dose from which suppression of lipid accumulation was effective / CE/FC Adrenal Gland / CE/FC Lipid Accumulation to Artery / CE/FC Liver / CE/FC Small Intestine: 10 weeks; for plasma cholesterol at doses effective in suppression of lipid accumulation: total cholesterol in plasma relative to control, Dunnett's test; for CE/FC Adrenal Gland / CE/FC Lipid Accumulation to Artery / CE/FC Liver / CE/FC Small Intestine: ratio to control (1.0)
Method: Male hamsters of a Bio F1B strain purchased from Nippon Charles River were randomly grouped so that each group comprised six. As from eight weeks age, they were loaded with a high-fat feed (0.3% of cholesterol and 10% of coconut oil) for ten weeks while the drug was administered by mixing with the feed. After ten weeks, blood was collected and cholesterol in plasma was measured. Further, arterywas excised after fixingbyperfusion with a 10% formalin solution. This was incised, lipid which was accumulated in the artery was stained with Oil Red O and the stained area was measured using an image analyzer.
A high-fat feed (0.3% of cholesterol and 10% of coconut oil) was prepared by way of compounding ratio of cholesterol : coconut oil : feed (CE-2) = 0.03:1:9. Incidentally, a high-fat feed was given to the control group and the administered period was 10 weeks.
Hamster under a non-fasted state was anesthetized, subj ected to an abdominal section to expose the abdominal artery and about 2.5 mL of blood were collected. The collected blood was centrifuged at 3, 000 rpm for 15 minutes to collect the plasma and then total cholesterol (TC) and free cholesterol (FC) in plasma were determined by a Cholesterol E-Test Wako (a cholesterol oxidase DAOS method) and a Free Cholesterol E-Test Wako (a cholesterol oxidase DAOS method), respectively.
About 500 mg of liver, small intestine and adrenal body were excised and washed with a physiological saline solution and lipid concentration in the tissues was measured. In the measurement, 10 mL of chloroform : methanol (2:1) as an extracting solution for lipid in the tissue were placed in the liver and the small intestine, homogenized at 3,000 rpm using a Polytron Homogenizer PT 3100 and allowed to stand at 4°C for one night. The extract was centrifuged at 1,500 rpm for 15 minutes, 0.2 mL of the supernatant liquid was evaporated to dryness using a vacuum pump, the residue was dissolved in 50 µL of isopropanol and each lipid was subjected to the same kits whereupon TC and FC were quantified. With regard to the adrenal body, it was finely cut using scissors and 0.5 mL of chloroform : methanol (2:1) was added thereto followed by being allowed to stand at 4°C for one night. That was centrifuged at 1,500 rpm for 15 minutes, 0.2 mL of the supernatant liquid was evaporated to dryness using a vacuum pump, the residue was dissolved in 50 µL of isopropanol and each lipid was subjected to the same kits whereupon TC and FC were quantified.
With regard to the total cholesterol (TC) in plasma in the group to which the drug was administered, the relative ratio to TC in the control group was used as an indicator while, with regard to the tissue, difference between TC and FC was defined as CE (cholesterol ester) and the lipid-constituting ratio, CE/FC, in each organ was determined whereupon their relative ratio to each control was calculated and used as an indicator. Thus, in those indicators, the control group was defined as 100% and the calculation using the following formula was carried out so as to use a plasma TC lowering action by ACAT inhibitory action to liver and small intestine of the group to which the drug was administered as an indicator and also to use the variation of CE/FC ratio by an ACAT inhibitory action to each organ as an indicator. Indicator (%) for total cholesterol in plasma = [(TC of drug-administered group)/(TC of the control group)] × 100 [formula] Indicator (%) for lipid constituting ratio in each organ = [(CE/FC of drug-administered group)/(CE/FC of the control group)] × 100 [formula]
After collection of the blood, a 18-G injection needle was inserted into apex and perfused with a physiological saline solution (120 mmHg) for about 5minutes. It was further perfused with a 10% neutral formalin buffer (120 mmHg) for about 5 minutes. Bulbar and thoracic artery was excised and fixed in a 10% formalin buffer.

ACAT [2] = biological target: T1, ACAT (Mus musculus, UniProt Q61263); assay: ACAT inhibitory activity test in J774 cells (anti-foaming action); assay type: cell-based
T1 construct: J774 cells or HepG2 cells were sown on a 24-well plate; endogenous in cells; host or cells: J774 cells
T1 sequence (Q61263 1-540): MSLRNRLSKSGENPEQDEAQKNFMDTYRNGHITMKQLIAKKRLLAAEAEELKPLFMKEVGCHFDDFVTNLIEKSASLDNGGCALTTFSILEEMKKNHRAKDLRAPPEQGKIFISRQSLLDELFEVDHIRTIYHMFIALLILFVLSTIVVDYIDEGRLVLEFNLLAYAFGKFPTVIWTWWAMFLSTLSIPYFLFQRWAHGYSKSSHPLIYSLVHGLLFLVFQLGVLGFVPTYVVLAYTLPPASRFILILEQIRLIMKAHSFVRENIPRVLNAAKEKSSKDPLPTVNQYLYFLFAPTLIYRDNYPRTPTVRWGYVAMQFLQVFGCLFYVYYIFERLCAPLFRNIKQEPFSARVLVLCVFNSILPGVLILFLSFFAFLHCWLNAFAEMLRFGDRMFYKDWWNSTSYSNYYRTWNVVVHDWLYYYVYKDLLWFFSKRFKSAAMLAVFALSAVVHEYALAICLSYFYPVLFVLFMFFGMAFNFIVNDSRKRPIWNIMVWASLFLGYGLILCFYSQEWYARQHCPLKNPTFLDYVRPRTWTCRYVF
Method: (§1) J774 cells or HepG2 cells were sown on a 24-well plate and incubation was carried out at 37°C for 24 hours in a 5% CO2 incubator using a Dulbecco's modified Eagle's medium for J774 cells and an Eagle's minimum essential medium for HepG2 cells (where both media contained 10% of fetal bovine serum). […] The medium was taken out, washed with PBS twice, extracted with 1.5 mL of hexane-isopropanol (3:2) and concentrated to dryness. The extract was dissolved in isopropanol containing 0.2 mL of 10% Triton X-100 and then total cholesterol (TC) and free cholesterol (FC) were determined by a Cholesterol E Test Wako (Wako Pure Chemical) and a Free Cholesterol E Test Wako (Wako Pure Chemical), respectively. The residue of the cell after extraction was solubilized with 0.25 mL of 2N NaOH at 37°C for 30 minutes and protein was determined by a BCA Protein Assay Reagent (Pierce). From the differencebetween TC and FC, amount of cholesterolester per protein was calculated and, from the comparative calculation with the control, IC50 value was determined.

[3] = Water solubility in liquid I of the Japanese Pharmacopoeia; assay type: physicochemical
ACAT [4] = assay: ACAT inhibitory activity test in HepG2 cells; assay type: cell-based; settings: 25-hydroxycholesterol 10 µg/mL, 18 hours, cholesterol ester per protein
Method: as §1

[5] = Oral absorption test in rats under a fed condition (plasma concentration); assay type: in vivo; settings: for AUC(0-inf) / Cmax: rat, plasma, po, 30 mg/kg, rats, fed, oral 30 mg/kg
Method: A solution of the compound of the present invention (dissolved in a mixture of water : PEG 400 = 1:4) or a suspension in 0.5% methyl cellulose (MC) was compulsorily administered per os at. the dose of 30 mg/kg to three rats under a fed condition. Blood after the administration was periodically collected and its concentration in plasma was measured.
The organic layer (upper layer) was collected, the solvent was evaporated in a nitrogen stream, the residue was dissolved in 0.2 mL of a mobile phase (refer to the following) and 80 µL thereof were measured under the following analytical conditions.
The organic layer was collected, the solvent was evaporated in a nitrogen stream, the residue was dissolved in 0.2 mL of a mobile phase (refer to the following) and 80 µL thereof were measured under the following condition for high-performance liquid chromatography. Condition for detection: • (Detector: Single-stage quadrupole mass spectrometer • Ionization method: Atmospheric pressure chemical ionization method • Temperature of nebulizer: 475°C • Corona voltage: 3 kV • Monitoring ion: m/z 569 (hydrogen addition ion of the compound of Example 78), 549 (hydrogen addition ion of the compound of Example 85)) Condition for separation: • (Column: Symmetry RP8 manufactured by Waters (3.0 mmφ × 150 mm) • Temperature of column: 45°C • Mobile phase: a solution where 0.1% ammonium formate (pH 4)/methanol/acetonitrile are mixed in […] • Flow rate: 0.8 mL/min)
To 150 µL of plasma were added a 0.1 mol/L aqueous solution of sodium hydroxide and 0.2 mL of an analogous compound (500 ng/mL of the compound of Example 28 of the Japanese Patent Application No. 8/158,743, i.e. 8-(benzimidazol-2-ylthio)-N-(2,6-diisopropylphenyl)octanamide as an internal standard, stirred and extracted with 6 mL of an isopropanol/hexane (5: 95) solution. The organic layer was collected, the solvent was evaporated in a nitrogen stream, the residue was dissolved in 0.2 mL of a mobile phase (refer to the following) and 80 µL thereof were measured under the following condition for high-performance liquid chromatography.

[6] = as above; assay type: in vivo; settings: rat, 30 mg/kg, medium 0.05N (Aq HCl)

Compound: CC(C)c1cc(C(C)C)c(CC(=O)NS(=O)(=O)Oc2c(C(C)C)cccc2C(C)C)c(C(C)C)c1 [Cl-1011]
dose from which suppression of lipid accumulation was effective [1]: ≥ 1 mg/kg
plasma cholesterol at doses effective in suppression of lipid accumulation [1]: accompanied by a significant decrease of plasma cholesterol
CE/FC Adrenal Gland ([1]; dose 0.1 mg/kg in feed): 0.98
CE/FC Lipid Accumulation to Artery ([1]; dose 0.1 mg/kg in feed): 0.73
CE/FC Liver ([1]; dose 0.1 mg/kg in feed): 1.03
CE/FC Small Intestine ([1]; dose 0.1 mg/kg in feed): 0.92
CE/FC Adrenal Gland ([1]; dose 0.3 mg/kg in feed): 1.03
CE/FC Lipid Accumulation to Artery ([1]; dose 0.3 mg/kg in feed): 0.81
CE/FC Liver ([1]; dose 0.3 mg/kg in feed): 0.74
CE/FC Small Intestine ([1]; dose 0.3 mg/kg in feed): 0.82
CE/FC Adrenal Gland ([1]; dose 1 mg/kg in feed): 0.62
CE/FC Lipid Accumulation to Artery ([1]; dose 1 mg/kg in feed): 0.35
CE/FC Liver ([1]; dose 1 mg/kg in feed): 0.37
CE/FC Small Intestine ([1]; dose 1 mg/kg in feed): 0.60
CE/FC Adrenal Gland ([1]; dose 3 mg/kg in feed): 0.24
CE/FC Lipid Accumulation to Artery ([1]; dose 3 mg/kg in feed): 0.15
CE/FC Liver ([1]; dose 3 mg/kg in feed): 0.17
CE/FC Small Intestine ([1]; dose 3 mg/kg in feed): 0.08
CE/FC Adrenal Gland ([1]; dose 10 mg/kg in feed): 0.28
CE/FC Lipid Accumulation to Artery ([1]; dose 10 mg/kg in feed): 0
CE/FC Liver ([1]; dose 10 mg/kg in feed): 0.07
CE/FC Small Intestine ([1]; dose 10 mg/kg in feed): 0
difference of selectivities in each of the tissues ([1]; suppressing rate of lipid accumulation vs CE/FC ratio in liver, small intestine, adrenal body): a significant difference of selectivities was not found

IC50 (ACAT [2]; J774 cells, 25-hydroxycholesterol 10 µg/mL, 18 hours, cholesterol ester per protein): 0.46 µM
lowering of ACAT inhibitory activity (J774) (ACAT [2]; compared with the compound of Example 85 (19 nM)): about 24 fold
Compound: CC(C)c1ccc(O)c(C(C)C)c1NC(=O)CN1CCN(CCSc2nc3cccc(C(F)(F)F)c3o2)CC1 [Comparative Compound, 2-[4-[2-(7-trifluoromethylbenzoxazol-2-ylthio)ethyl]piperazin-1-yl]-N-(2,6-diisopropyl-3-hydroxyphenyl)acetamide]

increase of solubility ([3]; compared with the lead compound (Example 85)): 5 fold
solubility ([3]; pH 1.2, simulated gastric fluid): 0.5 mg/mL
IC50 (ACAT [4]): 2.9 µM
macrophage selectivity (IC50 (HepG2)/IC50 (J774)) (ACAT [2]): about 45 fold
improvement of oral absorption ([5]; compared with Example 85, medium 0.5% methyl cellulose (MC) suspension, rats 30 mg/kg): about 9.4 fold
increase in oral absorption ([5]; compared with Example 85, medium water/PEG 400 (1:4), rats 30 mg/kg): about 8 fold
AUC(0-inf) ([5]; medium 0.5% MC Suspension): 0.639 µg·h/mL
Cmax ([5]; medium 0.5% MC Suspension): 0.167 µg/mL
AUC(0-inf) ([5]; medium PEG 400: Water (4:1)): 0.486 µg·h/mL
Cmax ([5]; medium PEG 400: Water (4:1)): 0.141 µg/mL
Compound: CC(C)c1cc(O)cc(C(C)C)c1NC(=O)CN1CCN(CCSc2nc3cccc(C(F)(F)F)c3o2)CC1.Cl [Compound of the Invention, 2-[4-[2-(7-trifluoromethylbenzoxazol-2-ylthio)ethyl]piperazin-1-yl]-N-(2,6-diisopropyl-4-hydroxyphenyl)acetamide hydrochloride]
dose from which suppression of lipid accumulation was effective [1]: ≥ 3 mg/kg
plasma cholesterol at doses effective in suppression of lipid accumulation [1]: without a significant decrease of plasma cholesterol
CE/FC Adrenal Gland ([1]; dose 3 mg/kg in feed): 1.02
CE/FC Lipid Accumulation to Artery ([1]; dose 3 mg/kg in feed): 0.69
CE/FC Liver ([1]; dose 3 mg/kg in feed): 1.08
CE/FC Small Intestine ([1]; dose 3 mg/kg in feed): 1.16
CE/FC Adrenal Gland ([1]; dose 10 mg/kg in feed): 1.11
CE/FC Lipid Accumulation to Artery ([1]; dose 10 mg/kg in feed): 0.33
CE/FC Liver ([1]; dose 10 mg/kg in feed): 0.88
CE/FC Small Intestine ([1]; dose 10 mg/kg in feed): 1.02
CE/FC Adrenal Gland ([1]; dose 30 mg/kg in feed): 0.89
CE/FC Lipid Accumulation to Artery ([1]; dose 30 mg/kg in feed): 0.21
CE/FC Liver ([1]; dose 30 mg/kg in feed): 0.60
CE/FC Small Intestine ([1]; dose 30 mg/kg in feed): 0.91
CE/FC Adrenal Gland ([1]; dose 100 mg/kg in feed): 0.52
CE/FC Lipid Accumulation to Artery ([1]; dose 100 mg/kg in feed): 0.17
CE/FC Liver ([1]; dose 100 mg/kg in feed): 0.24
CE/FC Small Intestine ([1]; dose 100 mg/kg in feed): 0.20

AUC(0-inf) [6]: 0.295 µg·h/mL
Cmax [6]: 0.11 µg/mL
Compound: CC(C)c1cccc(C(C)C)c1NC(=O)CN1CCN(CCSc2nc3ccccc3o2)CC1 [Example 1, 2-[4-[2-(benzoxazol-2-ylthio)ethyl]piperazin-1-yl]-N-(2,6-diisopropylphenyl) acetamide]
